Patent US20150141381A1, “TETRACYCLINE COMPOUNDS HAVING TARGET THERAPEUTIC ACTIVITIES” (Paratek Pharmaceuticals, Inc., priority 2001, published 2015)

Columns and labels:
S. aureus RN450 = experiment: In Vitro Anti-Bacterial Activity Assay (MIC), gram positive; format: cell-based; details: Staphylococcus aureus, RN450, 18 h, gram positive bacteria; read-out: Antibiotic Activity Gram + (MIC)
E. coli mL308 225 = experiment: In Vitro Anti-Bacterial Activity Assay (MIC), gram negative; format: cell-based; details: Escherichia coli, ML308225, 18 h, gram negative bacteria; read-out: Antibiotic Activity Gram − (MIC)

| SMILES | MIC (S. aureus RN450) | MIC (E. coli mL308 225) |
| --- | --- | --- |
| CN(C)[C@@H]1C(O)=C(C(N)=O)C(=O)[C@@]2(O)C(O)=C3C(=O)c4c(O)ccc(C#CCO)c4C[C@H]3C[C@@H]12 | < 4 µg/mL | > 4 µg/mL |
| CC(=O)c1ccc(-c2cc(N(C)C)c3c(c2O)C(=O)C2=C(O)[C@]4(O)C(=O)C(C(N)=O)=C(O)[C@@H](N(C)C)[C@@H]4C[C@@H]2C3)cc1 | < 4 µg/mL | > 4 µg/mL |
| CN(C)[C@@H]1C(O)=C(C(N)=O)C(=O)[C@@]2(O)C(O)=C3C(=O)c4c(O)ccc(/C=C/c5ccc(C(F)(F)F)cc5)c4C[C@H]3C[C@@H]12 | < 4 µg/mL | > 4 µg/mL |
| COc1cccc(C/C=C\c2ccc(O)c3c2C[C@H]2C[C@H]4[C@H](N(C)C)C(O)=C(C(N)=O)C(=O)[C@@]4(O)C(O)=C2C3=O)c1O | < 4 µg/mL | < 4 µg/mL |
| CN(C)[C@@H]1C(O)=C(C(N)=O)C(=O)[C@@]2(O)C(O)=C3C(=O)c4c(O)ccc(CCC(=O)N5CCOCC5)c4C[C@H]3C[C@@H]12 | < 4 µg/mL | > 4 µg/mL |
| CN(C)c1cc(C#CC(=O)O)c(O)c2c1C[C@H]1C[C@H]3[C@H](N(C)C)C(O)=C(C(N)=O)C(=O)[C@@]3(O)C(O)=C1C2=O | > 4 µg/mL | > 4 µg/mL |
| CCCC/C(Cl)=C/c1ccc(O)c2c1C[C@H]1C[C@H]3[C@H](N(C)C)C(O)=C(C(N)=O)C(=O)[C@@]3(O)C(O)=C1C2=O | < 4 µg/mL | < 4 µg/mL |
| CCCc1ccc(O)c2c1C[C@H]1C[C@H]3[C@H](N(C)C)C(O)=C(C(N)=O)C(=O)[C@@]3(O)C(O)=C1C2=O | < 4 µg/mL | < 4 µg/mL |
| CN(C)c1cc(C#CCNS(C)(=O)=O)c(O)c2c1C[C@H]1C[C@H]3[C@H](N(C)C)C(O)=C(C(N)=O)C(=O)[C@@]3(O)C(O)=C1C2=O | > 4 µg/mL | > 4 µg/mL |
| CN(C)[C@@H]1C(O)=C(C(N)=O)C(=O)[C@@]2(O)C(O)=C3C(=O)c4c(O)ccc(C5CCCC5)c4C[C@H]3C[C@@H]12 | < 4 µg/mL | < 4 µg/mL |
| CCCCCCc1ccc(O)c2c1C[C@H]1C[C@H]3[C@H](N(C)C)C(O)=C(C(N)=O)C(=O)[C@@]3(O)C(O)=C1C2=O | < 4 µg/mL | < 4 µg/mL |
| CCN(Cc1ccccc1)Cc1cc(N(C)C)c2c(c1O)C(=O)C1=C(O)[C@]3(O)C(=O)C(C(N)=O)=C(O)[C@@H](N(C)C)[C@@H]3C[C@@H]1C2 | < 4 µg/mL | < 4 µg/mL |
| CN(C)c1cc(CN(Cc2ccccc2)CC(F)(F)F)c(O)c2c1C[C@H]1C[C@H]3[C@H](N(C)C)C(O)=C(C(N)=O)C(=O)[C@@]3(O)C(O)=C1C2=O | < 4 µg/mL | > 4 µg/mL |
| CNC(=O)C1CCN(Cc2cc(N(C)C)c3c(c2O)C(=O)C2=C(O)[C@]4(O)C(=O)C(C(N)=O)=C(O)[C@@H](N(C)C)[C@@H]4C[C@@H]2C3)CC1 | < 4 µg/mL | < 4 µg/mL |
| CC1CN(Cc2cc(N(C)C)c3c(c2O)C(=O)C2=C(O)[C@]4(O)C(=O)C(C(N)=O)=C(O)[C@@H](N(C)C)[C@@H]4C[C@@H]2C3)CC(C)O1 (stereo partly shown) | < 4 µg/mL | < 4 µg/mL |
| CN(C)c1cc(CN2CCCC2C(F)(F)F)c(O)c2c1C[C@H]1C[C@H]3[C@H](N(C)C)C(O)=C(C(N)=O)C(=O)[C@@]3(O)C(O)=C1C2=O (stereo partly shown) | < 4 µg/mL | < 4 µg/mL |
| COCC(C)CN(C)Cc1cc(N(C)C)c2c(c1O)C(=O)C1=C(O)[C@]3(O)C(=O)C(C(N)=O)=C(O)[C@@H](N(C)C)[C@@H]3C[C@@H]1C2 (stereo partly shown) | < 4 µg/mL | > 4 µg/mL |
| CC1OC(=O)NC1COC(=O)N(Cc1cc(N(C)C)c2c(c1O)C(=O)C1=C(O)[C@]3(O)C(=O)C(C(N)=O)=C(O)[C@@H](N(C)C)[C@@H]3C[C@@H]1C2)CC(C)(C)C (stereo partly shown) | < 4 µg/mL | > 4 µg/mL |
| CN(C)c1cc(CN2CCC(F)CC2)c(O)c2c1C[C@H]1C[C@H]3[C@H](N(C)C)C(O)=C(C(N)=O)C(=O)[C@@]3(O)C(O)=C1C2=O | < 4 µg/mL | < 4 µg/mL |
| CN(C)c1cc(CN2CCC3CCCCC3C2)c(O)c2c1C[C@H]1C[C@H]3[C@H](N(C)C)C(O)=C(C(N)=O)C(=O)[C@@]3(O)C(O)=C1C2=O (stereo partly shown) | < 4 µg/mL | < 4 µg/mL |
| CN(C)c1cc(CNCC(=O)C(C)(C)C)c(O)c2c1C[C@H]1C[C@H]3[C@H](N(C)C)C(O)=C(C(N)=O)C(=O)[C@@]3(O)C(O)=C1C2=O | < 4 µg/mL | > 4 µg/mL |
| CN(C)c1cc(CN2CCc3ccccc3C2)c(O)c2c1C[C@H]1C[C@H]3[C@H](N(C)C)C(O)=C(C(N)=O)C(=O)[C@@]3(O)C(O)=C1C2=O | < 4 µg/mL | < 4 µg/mL |
| CN(C)c1cc(CNC2C[C@H]3CC[C@@H]2C3)c(O)c2c1C[C@H]1C[C@H]3[C@H](N(C)C)C(O)=C(C(N)=O)C(=O)[C@@]3(O)C(O)=C1C2=O (stereo partly shown) | < 4 µg/mL | < 4 µg/mL |
| CCc1cc(CNCCC(F)(F)F)c(O)c2c1C[C@H]1C[C@H]3[C@H](N(C)C)C(O)=C(C(N)=O)C(=O)[C@@]3(O)C(O)=C1C2=O | < 4 µg/mL | < 4 µg/mL |

| SMILES | MIC (S. aureus RN450) | MIC (E. coli mL308 225) |
| --- | --- | --- |
| CN(C)c1cc(CN2CCC(=O)CC2)c(O)c2c1C[C@H]1C[C@H]3[C@H](N(C)C)C(O)=C(C(N)=O)C(=O)[C@@]3(O)C(O)=C1C2=O | < 4 µg/mL | > 4 µg/mL |
| CN(C)c1cc(CNCC23CC4CC(CC(C4)C2)C3)c(O)c2c1C[C@H]1C[C@H]3[C@H](N(C)C)C(O)=C(C(N)=O)C(=O)[C@@]3(O)C(O)=C1C2=O | < 4 µg/mL | < 4 µg/mL |
| CN(C)c1cc(CN2CCCCCC2)c(O)c2c1C[C@H]1C[C@H]3[C@H](N(C)C)C(O)=C(C(N)=O)C(=O)[C@@]3(O)C(O)=C1C2=O | < 4 µg/mL | < 4 µg/mL |
| CN(C)c1cc(CN2C3CCC2CC3)c(O)c2c1C[C@H]1C[C@H]3[C@H](N(C)C)C(O)=C(C(N)=O)C(=O)[C@@]3(O)C(O)=C1C2=O | < 4 µg/mL | > 4 µg/mL |
| CC(C)N1CCC(Nc2ccc3c(c2O)C(=O)C2=C(O)[C@]4(O)C(=O)C(C(N)=O)=C(O)[C@@H](N(C)C)[C@@H]4C[C@@H]2C3)CC1 | < 4 µg/mL | > 4 µg/mL |
| CN(C)c1cc(CN2CCC3(CCCC3)CC2)c(O)c2c1C[C@H]1C[C@H]3[C@H](N(C)C)C(O)=C(C(N)=O)C(=O)[C@@]3(O)C(O)=C1C2=O | < 4 µg/mL | < 4 µg/mL |
| CCC1(C)CCN(Cc2cc(N(C)C)c3c(c2O)C(=O)C2=C(O)[C@]4(O)C(=O)C(C(N)=O)=C(O)[C@@H](N(C)C)[C@@H]4C[C@@H]2C3)CC1 | < 4 µg/mL | < 4 µg/mL |
| CCN(CC)c1ccc(O)c2c1C[C@H]1C[C@H]3[C@H](N(C)C)C(O)=C(C(N)=O)C(=O)[C@@]3(O)C(O)=C1C2=O | < 4 µg/mL | < 4 µg/mL |
| Cc1cc(CNCc2cc(N(C)C)c3c(c2O)C(=O)C2=C(O)[C@]4(O)C(=O)C(C(N)=O)=C(O)[C@@H](N(C)C)[C@@H]4C[C@@H]2C3)c(C(F)(F)F)o1 | < 4 µg/mL | < 4 µg/mL |
| CN(C)c1cc(CNCCCC(F)(F)F)c(O)c2c1C[C@H]1C[C@H]3[C@H](N(C)C)C(O)=C(C(N)=O)C(=O)[C@@]3(O)C(O)=C1C2=O | < 4 µg/mL | < 4 µg/mL |
| CC(=O)O[C@H]1[C@H]2C(=C(O)[C@]3(O)C(=O)C(C(N)=O)=C(O)[C@@H](N(C)C)[C@H]13)C(=O)c1c(ccc(CN3CCC(C(F)(F)F)CC3)c1O)[C@@H]2C | < 4 µg/mL | < 4 µg/mL |
| CN(C)[C@@H]1C(O)=C(C(N)=O)C(=O)[C@@]2(O)C(O)=C3C(=O)c4c(ccc(NCCNC(C)(C)C)c4O)C[C@H]3C[C@@H]12 | < 4 µg/mL | < 4 µg/mL |
| C[C@H]1c2ccc(CN3CCC4(CC3)OCCO4)c(O)c2C(=O)C2=C(O)[C@]3(O)C(=O)C(C(N)=O)=C(O)[C@@H](N(C)C)[C@@H]3[C@@H](O)[C@@H]21 | < 4 µg/mL | < 4 µg/mL |
| CN(C)c1cc(CN2CCC(C(F)F)CC2)c(O)c2c1C[C@H]1C[C@H]3[C@H](N(C)C)C(O)=C(C(N)=O)C(=O)[C@@]3(O)C(O)=C1C2=O | < 4 µg/mL | < 4 µg/mL |
| CCN(CC)c1cc(CN2CCC(F)CC2)c(O)c2c1C[C@H]1C[C@H]3[C@H](N(C)C)C(O)=C(C(N)=O)C(=O)[C@@]3(O)C(O)=C1C2=O | < 4 µg/mL | < 4 µg/mL |
| CC1CCN(Cc2cc(N(C)C)c3c(c2O)C(=O)C2=C(O)[C@]4(O)C(=O)C(C(N)=O)=C(O)[C@@H](N(C)C)[C@@H]4C[C@@H]2C3)CC1 | < 4 µg/mL | < 4 µg/mL |
| COC1CCN(Cc2cc(N(C)C)c3c(c2O)C(=O)C2=C(O)[C@]4(O)C(=O)C(C(N)=O)=C(O)[C@@H](N(C)C)[C@@H]4C[C@@H]2C3)CC1 | < 4 µg/mL | < 4 µg/mL |
| CN(CCCC(F)(F)F)Cc1cc(N(C)C)c2c(c1O)C(=O)C1=C(O)[C@]3(O)C(=O)C(C(N)=O)=C(O)[C@@H](N(C)C)[C@@H]3C[C@@H]1C2 | < 4 µg/mL | < 4 µg/mL |
| CN(C)[C@@H]1C(O)=C(C(N)=O)C(=O)[C@@]2(O)C(O)=C3C(=O)c4c(O)ccc(CNCC(C)(C)C)c4C[C@H]3C[C@@H]12 | < 4 µg/mL | < 4 µg/mL |
| C[C@H]1c2c(CN)cc(C(C)(C)C)c(O)c2C(=O)C2=C(O)[C@]3(O)C(=O)C(C(N)=O)=C(O)[C@@H](N(C)C)[C@@H]3[C@@H](O)[C@@H]21 | > 4 µg/mL | > 4 µg/mL |
| C[C@H]1c2c(CN)ccc(O)c2C(=O)C2=C(O)[C@]3(O)C(=O)C(C(N)=O)=C(O)[C@@H](N(C)C)[C@@H]3[C@@H](O)[C@@H]21 | > 4 µg/mL | > 4 µg/mL |
| C[C@H]1c2c(Br)ccc(O)c2C(=O)C2=C(O)[C@]3(O)C(=O)C(C(N)=O)=C(O)[C@@H](N(C)C)[C@@H]3[C@@H](O)[C@@H]21 | > 4 µg/mL | > 4 µg/mL |
| C[C@H]1c2ccc(N)c(O)c2C(=O)C2=C(O)[C@]3(O)C(=O)C(C(N)=O)=C(O)[C@@H](N(C)C)[C@@H]3[C@@H](O)[C@@H]21 | > 4 µg/mL | > 4 µg/mL |
